Usually IC50 stands for the concentration that gives 50% inhibition.

Like-named read-outs stand apart in the source and are kept apart here.

This assay deals with T1, recombinant full-length USP7 (Homo sapiens, UniProt Q93009).
T1 construct: A 25 μl reaction volume containing recombinant full-length USP7 (62 pM)
In words: USP7-mediated ubiquitin-rhodamine cleavage assay. Format: biochemical. The conditions noted are these: recombinant full-length USP7 62 pM, ubiquitin-rhodamine 100 nM, 1 hour reaction at room temperature. The essentials:
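Compounds are first incubated with 62 pM enzyme for 30 min at room temperature in pH 7.3 HEPES buffer containing TCEP and BSA. Cleavage of 100 nM ubiquitin-rhodamine proceeds for 1 h before an acid quench, and IC50 is derived from fluorescence.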

Setting [1] is: 30-minute pre-incubation, read-out: Potency (USP7 IC50).
Setting [2] is: 30-minute incubation with compound, read-out: Potency: USP7 IC50.

T1 sequence (Q93009 whole entry): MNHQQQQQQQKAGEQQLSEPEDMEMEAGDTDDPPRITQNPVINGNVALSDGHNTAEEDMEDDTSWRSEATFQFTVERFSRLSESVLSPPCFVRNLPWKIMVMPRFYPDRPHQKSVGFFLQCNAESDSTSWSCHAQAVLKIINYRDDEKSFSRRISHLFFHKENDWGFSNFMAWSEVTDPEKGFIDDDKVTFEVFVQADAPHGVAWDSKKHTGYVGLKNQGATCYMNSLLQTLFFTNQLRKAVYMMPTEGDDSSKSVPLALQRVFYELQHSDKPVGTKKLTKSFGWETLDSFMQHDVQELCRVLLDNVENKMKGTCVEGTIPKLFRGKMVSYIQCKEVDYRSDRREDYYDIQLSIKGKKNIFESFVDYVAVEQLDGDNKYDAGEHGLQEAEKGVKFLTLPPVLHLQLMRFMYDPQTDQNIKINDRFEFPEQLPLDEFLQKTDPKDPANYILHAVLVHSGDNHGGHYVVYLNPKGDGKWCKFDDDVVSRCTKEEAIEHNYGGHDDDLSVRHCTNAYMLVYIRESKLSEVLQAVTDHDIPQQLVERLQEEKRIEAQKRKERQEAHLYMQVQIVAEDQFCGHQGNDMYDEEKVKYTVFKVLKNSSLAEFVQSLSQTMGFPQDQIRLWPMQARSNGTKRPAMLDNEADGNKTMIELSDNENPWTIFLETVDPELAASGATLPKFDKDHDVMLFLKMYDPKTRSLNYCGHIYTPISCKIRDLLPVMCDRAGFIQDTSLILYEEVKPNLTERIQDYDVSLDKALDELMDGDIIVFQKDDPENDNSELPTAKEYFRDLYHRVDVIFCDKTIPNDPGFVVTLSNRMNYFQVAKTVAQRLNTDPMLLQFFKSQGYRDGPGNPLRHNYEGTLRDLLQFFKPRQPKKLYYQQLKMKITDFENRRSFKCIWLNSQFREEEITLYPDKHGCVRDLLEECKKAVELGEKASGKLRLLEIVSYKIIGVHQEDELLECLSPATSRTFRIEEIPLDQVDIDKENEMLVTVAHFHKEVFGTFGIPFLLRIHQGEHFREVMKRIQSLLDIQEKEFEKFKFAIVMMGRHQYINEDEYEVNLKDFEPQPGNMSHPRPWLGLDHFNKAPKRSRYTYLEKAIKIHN

In the case of `Cc1cc(Cl)cc(-c2ccnc3cc(Cn4c(=O)ccn(CC(F)(F)F)c4=O)sc23)c1OC1(C)CCNC1` (centres unmarked) [Example 663, 3-[[7-[5-chloro-3-methyl-2-(3-methylpyrrolidin-3-yl)oxy-phenyl]thieno[3,2-b]pyridin-2-yl]methyl]-1-(2,2,2-trifluoroethyl)pyrimidine-2,4-dione], the IC50 under setting [1] was less than 1 µM.
As to `Cc1cc(Cl)cc(-c2ccnc3cc(Cn4c(=O)ccn(CC(F)(F)F)c4=O)sc23)c1OC1CCC1` [Example 683, 3-[[7-[5-chloro-2-(cyclobutoxy)-3-methyl-phenyl]thieno[3,2-b]pyridin-2-yl]methyl]-1-(2,2,2-trifluoroethyl)pyrimidine-2,4-dione], the IC50 (30-minute incubation, read-out: Potency (USP7 IC50)) is less than 1 µM.
`OCc1cc2nccc(-c3cc(Cl)cc(C4CC4)c3OCC3CNC3)c2s1` [Example 23, (7-(2-(Azetidin-3-ylmethoxy)-5-chloro-3-cyclopropylphenyl)thieno[3,2-b]pyridin-2-yl)methanol]: the IC50 under setting [2] lay in the range of 1 to 10 µM.
Still for that read-out and setting: the value for `Cc1cc(C#N)cc(-c2ccnc3cc(CN4C(=O)CCC4=O)sc23)c1OCC1(C#N)CNC1` [Example 27, 3-((4-Cyano-2-(2-((2,5-dioxopyrrolidin-1-yl)methyl)thieno[3,2-b]pyridin-7-yl)-6-methylphenoxy)methyl)azetidine-3-carbonitrile] was less than 1 µM; that for `Cc1cc(Cl)cc(-c2ccnc3cc(CN4C(=O)CCC4=O)sc23)c1OC1CCN(C2COC2)CC1` [Example 207, 1-((7-(5-Chloro-3-methyl-2-((1-(oxetan-3-yl)piperidin-4-yl)oxy)phenyl)thieno[3,2-b]pyridin-2-yl)methyl)pyrrolidine-2,5-dione] was 1 to 10 µM; that for `Cc1cc([N+](=O)[O-])cc(-c2ccnc3cc(Cn4c(=O)ccn(CC(F)(F)F)c4=O)sc23)c1Oc1cncc(N)c1` [Example 281, 3-[[7-[2-[(5-amino-3-pyridyl)oxy]-3-methyl-5-nitro-phenyl]thieno[3,2-b]pyridin-2-yl]methyl]-1-(2,2,2-trifluoroethyl)pyrimidine-2,4-dione] was less than 1 µM.
As to `Cc1cc(Cl)cc(-c2ncnc3cc(Cn4c(=O)ccn(C(C)C)c4=O)sc23)c1O[C@H]1CC[C@H](N)C1` [Example 542, 3-[[4-[2-[(1S,3S)-3-aminocyclopentoxy]-5-chloro-3-methyl-phenyl]thieno[3,2-d]pyrimidin-6-yl]methyl]-1-isopropyl-pyrimidine-2,4-dione; 2,2,2-trifluoroacetic acid], under setting [1], the IC50 was less than 1 µM.
The same measure, in the same setting: the value for `Cc1cc(Cl)cc(-c2ccnc3cc(Cn4c(=O)c(C)cn(CC(F)(F)F)c4=O)sc23)c1O[C@H]1CCCNC1` [Example 557, 3-[[7-[5-chloro-3-methyl-2-[[(3S)-3-piperidyl]oxy]phenyl]thieno[3,2-b]pyridin-2-yl]methyl]-5-methyl-1-(2,2,2-trifluoroethyl)pyrimidine-2,4-dione] was less than 1 µM; that for `Cc1cc(Cl)cc(-c2ccnc3cc(Cn4c(=O)ccn(C)c4=O)sc23)c1O[C@H]1CCNC[C@]1(C)F` [Example 545, 3-[[7-[5-chloro-2-[[(3S,4S)-3-fluoro-3-methyl-4-piperidyl]oxy]-3-methyl-phenyl]thieno[3,2-b]pyridin-2-yl]methyl]-1-methyl-pyrimidine-2,4-dione; 2,2,2-trifluoroacetic acid] was less than 1 µM.
On the same count and under the same terms, the value for `Cc1c(F)c(Cl)cc(-c2ccnc3cc(CN4C(=O)CCC4=O)sc23)c1O[C@H]1CCCNC1` [Example 433, 1-[[7-[5-chloro-4-fluoro-3-methyl-2-[[(3S)-3-piperidyl]oxy]phenyl]thieno[3,2-b]pyridin-2-yl]methyl]pyrrolidine-2,5-dione; 2,2,2-trifluoroacetic acid] was 1 to 10 µM.
On the same count and under the same terms, next, `Cc1cc(Cl)cc(-c2ccnc3cc(Cn4c(=O)ccn(CC(F)(F)F)c4=O)sc23)c1O[C@@H]1CCN(Cc2cnoc2)C[C@@H]1C` [Example 648, 3-[[7-[5-chloro-2-[[(3S,4R)-1-(isoxazol-4-ylmethyl)-3-methyl-4-piperidyl]oxy]-3-methyl-phenyl]thieno[3,2-b]pyridin-2-yl]methyl]-1-(2,2,2-trifluoroethyl)pyrimidine-2,4-dione]: less than 1 µM.
For the compound `CCC(O)c1cc2ncnc(-c3cc(C#N)cc(C)c3O[C@@H]3CNC[C@@H]3F)c2s1` (stereo partly drawn) [Example 95, 4-(((3R,4S)-4-Fluoropyrrolidin-3-yl)oxy)-3-(6-(1-hydroxypropyl)thieno[3,2-d]pyrimidin-4-yl)-5-methylbenzonitrile], the IC50 under setting [2] was less than 1 µM.
As to `CCN1C[C@H]2C[C@@H]1[C@H](Oc1c(C)cc(Cl)cc1-c1ccnc3cc(CN4C(=O)C5CC5C4=O)sc13)C2` (stereo partly drawn) [Example 320, 3-[[7-[5-chloro-2-[[(1S,4R,5R)-3-ethyl-3-azabicyclo[2.2.1]heptan-5-yl]oxy]-3-methyl-phenyl]thieno[3,2-b]pyridin-2-yl]methyl]-3-azabicyclo[3.1.0]hexane-2,4-dione], the IC50 under setting [2] was less than 1 µM.
Regarding `Cc1cc(Cl)cc(-c2ccnc3cc(Cn4c(=O)ccn(CC(F)(F)F)c4=O)sc23)c1OC1CC2CNC1C2` (centres unmarked) [Example 535, 3-[[7-[2-(3-azabicyclo[2.2.1]heptan-5-yloxy)-5-chloro-3-methyl-phenyl]thieno[3,2-b]pyridin-2-yl]methyl]-1-(2,2,2-trifluoroethyl)pyrimidine-2,4-dione], under setting [1], the IC50 is less than 1 µM.
Take `Cc1cc(Cl)cc(-c2ccnc3c(F)c(CN4C(=O)CCC4=O)sc23)c1O[C@H]1CCCNC1` [Example 163, (S)-1-((7-(5-Chloro-3-methyl-2-(piperidin-3-yloxy)phenyl)-3-fluorothieno[3,2-b]pyridin-2-yl)methyl)pyrrolidine-2,5-dione]: the IC50 under setting [2] was less than 1 µM.
Same read-out and setting: the value for `Cc1cc(Cl)cc(-c2ccnc3cc(CN4C(=O)C5CC5C4=O)sc23)c1O[C@H]1CC[C@H](C)NC1` (stereo partly drawn) [Example 305, 3-[[7-[5-chloro-3-methyl-2-[[(3S,6S)-6-methyl-3-piperidyl]oxy]phenyl]thieno[3,2-b]pyridin-2-yl]methyl]-3-azabicyclo[3.1.0]hexane-2,4-dione; 2,2,2-trifluoroacetic acid] was less than 1 µM.
With `Cc1cc(Cl)cc(-c2ccnc3cc(Cn4c(=O)ccn(CC(F)(F)F)c4=O)sc23)c1OC1CNCC[C@@]1(C)F` (stereo partly drawn) [Example 405, 3-[[7-[5-chloro-2-[[(4R)-4-fluoro-4-methyl-3-piperidyl]oxy]-3-methyl-phenyl]thieno[3,2-b]pyridin-2-yl]methyl]-1-(2,2,2-trifluoroethyl)pyrimidine-2,4-dione; 2,2,2-trifluoroacetic acid], under setting [1], the IC50 is less than 1 µM.
Still for that read-out and setting: the value for `Cc1cc(Cl)cc(-c2ncnc3cc(Cn4c(=O)ccn(CC(F)(F)F)c4=O)sc23)c1OC1CC2CNC1C2` (centres unmarked) [Example 539, 3-[[4-[2-(3-azabicyclo[2.2.1]heptan-5-yloxy)-5-chloro-3-methyl-phenyl]thieno[3,2-d]pyrimidin-6-yl]methyl]-1-(2,2,2-trifluoroethyl)pyrimidine-2,4-dione] was less than 1 µM.
For the compound `Cc1cc(Cl)cc(-c2ccnc3cc(CN4C(=O)CCC4=O)sc23)c1O[C@H]1CC[C@H](N)C1` [Example 127, 1-((7-(2-(((1S,3S)-3-Aminocyclopentyl)oxy)-5-chloro-3-methylphenyl)thieno[3,2-b]pyridin-2-yl)methyl)pyrrolidine-2,5-dione], under setting [2], the IC50 is less than 1 µM.
With `Cc1cc(Cl)cc(-c2ncnc3cc(Cn4c(=O)ccn(CC(F)(F)F)c4=O)sc23)c1OC1CCNCC1` [Example 527, 3-[[4-[5-chloro-3-methyl-2-(4-piperidyloxy)phenyl]thieno[3,2-d]pyrimidin-6-yl]methyl]-1-(2,2,2-trifluoroethyl)pyrimidine-2,4-dione], the IC50 under setting [1] was less than 1 µM.
`Cc1cc(Cl)cc(-c2ccnc3cc(CO)sc23)c1O[C@@H]1CN[C@@H](CO)C1` [Example 76, (7-(5-Chloro-2-(((3S,5R)-5-(hydroxymethyl)pyrrolidin-3-yl)oxy)-3-methylphenyl)thieno[3,2-b]pyridin-2-yl)methanol]: under setting [2], the IC50 was 10 to 30 µM.
Turning to `Cc1cc(Cl)cc(-c2ccnc3cc(Cn4c(=O)ccn(CC(F)(F)F)c4=O)sc23)c1OC1CC2CNC1C2` (centres unmarked) [Example 540, 3-[[7-[2-(3-azabicyclo[2.2.1]heptan-5-yloxy)-5-chloro-3-methyl-phenyl]thieno[3,2-b]pyridin-2-yl]methyl]-1-(2,2,2-trifluoroethyl)pyrimidine-2,4-dione], the IC50 under setting [1] was less than 1 µM.
Turning to `Cc1cc(Cl)cc(-c2ncnc3cc(CN4C(=O)CSC4=O)sc23)c1O[C@@H]1CNC[C@@H]1F` [Example 129, 3-((4-(5-Chloro-2-(((3R,4S)-4-fluoropyrrolidin-3-yl)oxy)-3-methylphenyl)thieno[3,2-d]pyrimidin-6-yl)methyl)thiazolidine-2,4-dione], the IC50 under setting [2] is less than 1 µM.
For the compound `Cc1cc(Cl)cc(-c2ccnc3cc(Cn4c(=O)ccn(CCC(F)(F)F)c4=O)sc23)c1O[C@H]1CCCNC1` [Example 583, 3-[[7-[5-chloro-3-methyl-2-[[(3S)-3-piperidyl]oxy]phenyl]thieno[3,2-b]pyridin-2-yl]methyl]-1-(3,3,3-trifluoropropyl)pyrimidine-2,4-dione], under setting [1], the IC50 was less than 1 µM.
As for `Cc1cc(Cl)cc(-c2ccnc3cc(CO)sc23)c1OC(C)C1CNC1` (centres unmarked) [Example 32, (7-(2-(1-(Azetidin-3-yl)ethoxy)-5-chloro-3-methylphenyl)thieno[3,2-b]pyridin-2-yl)methanol], under setting [2], the IC50 was in the range of 10 to 30 µM.
For the compound `CCC(O)c1cc2ncnc(-c3cc(Cl)cc(C)c3OCC3CNC3)c2s1` (centres unmarked) [Example 13, 1-(4-(2-(Azetidin-3-ylmethoxy)-5-chloro-3-methylphenyl)thieno[3,2-d]pyrimidin-6-yl)propan-1-ol], the IC50 under setting [2] is 1 to 10 µM.

The values above are taken from patent US10722514B2 (FLX Bio, Inc., priority 2017, dated 2020).
